Holding throughout (type): functional
The target in one experiment is T1, Protein RecA (Mycobacterium tuberculosis, UniProt P9WHJ3).
T1 sequence (P9WHJ3 whole entry): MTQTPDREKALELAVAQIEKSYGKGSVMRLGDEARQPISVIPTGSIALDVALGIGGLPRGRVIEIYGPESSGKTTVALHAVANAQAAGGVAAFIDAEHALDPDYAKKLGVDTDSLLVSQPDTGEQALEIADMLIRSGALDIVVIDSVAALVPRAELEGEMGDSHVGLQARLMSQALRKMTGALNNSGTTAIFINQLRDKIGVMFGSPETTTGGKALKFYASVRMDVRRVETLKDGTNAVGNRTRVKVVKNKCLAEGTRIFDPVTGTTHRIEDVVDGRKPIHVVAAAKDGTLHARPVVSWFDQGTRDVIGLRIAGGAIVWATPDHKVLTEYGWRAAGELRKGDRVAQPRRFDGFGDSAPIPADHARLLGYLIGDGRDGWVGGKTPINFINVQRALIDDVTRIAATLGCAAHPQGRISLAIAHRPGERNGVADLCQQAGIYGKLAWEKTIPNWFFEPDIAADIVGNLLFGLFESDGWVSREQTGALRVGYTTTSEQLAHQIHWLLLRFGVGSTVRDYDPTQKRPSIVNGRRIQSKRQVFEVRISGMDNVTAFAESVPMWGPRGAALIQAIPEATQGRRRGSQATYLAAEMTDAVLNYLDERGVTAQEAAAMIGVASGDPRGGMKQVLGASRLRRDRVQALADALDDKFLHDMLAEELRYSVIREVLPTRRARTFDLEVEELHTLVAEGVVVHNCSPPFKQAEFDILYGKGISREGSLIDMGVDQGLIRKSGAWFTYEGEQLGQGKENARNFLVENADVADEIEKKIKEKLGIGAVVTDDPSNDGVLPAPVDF
Nature of the experiment: Fluorescence Cell-Free Homogeneous Dose Retest to Identify Inhibitors of RecA-Intein Splicing Activity. [Related pubchem assays (depositor defined):AID2097, AID2223, AID489010, AID492950].

Experiment [1] addresses T2, Heat shock factor protein 1 (Mus musculus, UniProt P38532).
T2 sequence (P38532 whole entry): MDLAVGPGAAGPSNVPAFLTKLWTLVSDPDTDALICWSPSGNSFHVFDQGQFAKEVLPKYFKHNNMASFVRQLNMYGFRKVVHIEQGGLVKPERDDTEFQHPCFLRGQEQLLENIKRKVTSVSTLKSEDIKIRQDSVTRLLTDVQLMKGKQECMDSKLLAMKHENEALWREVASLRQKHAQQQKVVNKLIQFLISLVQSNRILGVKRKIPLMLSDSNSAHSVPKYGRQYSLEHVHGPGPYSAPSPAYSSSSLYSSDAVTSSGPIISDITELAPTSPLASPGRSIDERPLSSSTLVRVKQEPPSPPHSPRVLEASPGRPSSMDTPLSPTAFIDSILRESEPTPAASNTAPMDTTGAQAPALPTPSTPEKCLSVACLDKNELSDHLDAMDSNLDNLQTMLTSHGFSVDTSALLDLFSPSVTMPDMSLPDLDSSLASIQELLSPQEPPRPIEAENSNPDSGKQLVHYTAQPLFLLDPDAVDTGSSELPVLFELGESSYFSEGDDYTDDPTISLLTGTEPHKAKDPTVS
Nature of the experiment: enhancement of HSF1-driven luciferase signal – cell-based, NIH3T3, luminescence, dose retest, confirmation (AID 435004).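 Further: stress induced by proteasome inhibitor MG132 added 30 min after compound; luciferase reporter driven by HSF1 response element in NIH3T3 cells; actives raise luminescence as potentiators of the MG132 stress response.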

Experiment [2] has as its target Mitogen-activated protein kinase kinase kinase kinase 5 (Homo sapiens, UniProt Q9Y4K4).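 Further: measured as one member of a kinome-spanning kinase panel.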
The target of experiment [3] is MAP/microtubule affinity-regulating kinase 4 (Homo sapiens, UniProt Q96L34). Nature of the experiment: Navigating the Kinome. Panel member name: MARK4.
Sequence of MAP/microtubule affinity-regulating kinase 4 (Q96L34 whole entry): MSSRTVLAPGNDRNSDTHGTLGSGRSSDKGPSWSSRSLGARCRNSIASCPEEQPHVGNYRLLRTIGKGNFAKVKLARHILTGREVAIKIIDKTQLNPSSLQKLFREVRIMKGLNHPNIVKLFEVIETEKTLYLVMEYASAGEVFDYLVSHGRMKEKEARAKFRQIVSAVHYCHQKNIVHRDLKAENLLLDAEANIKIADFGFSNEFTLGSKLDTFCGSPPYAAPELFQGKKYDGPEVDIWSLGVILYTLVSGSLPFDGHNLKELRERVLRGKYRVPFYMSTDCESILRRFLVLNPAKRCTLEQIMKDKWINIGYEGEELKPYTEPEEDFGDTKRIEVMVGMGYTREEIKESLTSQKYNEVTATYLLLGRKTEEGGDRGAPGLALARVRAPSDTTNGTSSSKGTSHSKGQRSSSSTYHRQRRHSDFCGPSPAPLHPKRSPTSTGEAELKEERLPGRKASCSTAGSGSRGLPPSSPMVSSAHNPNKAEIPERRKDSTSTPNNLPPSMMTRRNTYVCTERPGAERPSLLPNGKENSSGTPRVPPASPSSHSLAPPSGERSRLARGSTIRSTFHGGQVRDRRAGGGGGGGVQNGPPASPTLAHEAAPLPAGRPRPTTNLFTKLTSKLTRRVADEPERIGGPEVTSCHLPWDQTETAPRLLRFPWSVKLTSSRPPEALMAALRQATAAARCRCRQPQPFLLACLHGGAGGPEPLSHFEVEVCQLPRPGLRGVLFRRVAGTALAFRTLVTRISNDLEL
The target of experiment [4] is Calcium/calmodulin-dependent protein kinase kinase 2 (Homo sapiens, UniProt Q96RR4). In words: Navigating the Kinome. Panel member name: CAMKK2.
Sequence of Calcium/calmodulin-dependent protein kinase kinase 2 (Q96RR4 whole entry): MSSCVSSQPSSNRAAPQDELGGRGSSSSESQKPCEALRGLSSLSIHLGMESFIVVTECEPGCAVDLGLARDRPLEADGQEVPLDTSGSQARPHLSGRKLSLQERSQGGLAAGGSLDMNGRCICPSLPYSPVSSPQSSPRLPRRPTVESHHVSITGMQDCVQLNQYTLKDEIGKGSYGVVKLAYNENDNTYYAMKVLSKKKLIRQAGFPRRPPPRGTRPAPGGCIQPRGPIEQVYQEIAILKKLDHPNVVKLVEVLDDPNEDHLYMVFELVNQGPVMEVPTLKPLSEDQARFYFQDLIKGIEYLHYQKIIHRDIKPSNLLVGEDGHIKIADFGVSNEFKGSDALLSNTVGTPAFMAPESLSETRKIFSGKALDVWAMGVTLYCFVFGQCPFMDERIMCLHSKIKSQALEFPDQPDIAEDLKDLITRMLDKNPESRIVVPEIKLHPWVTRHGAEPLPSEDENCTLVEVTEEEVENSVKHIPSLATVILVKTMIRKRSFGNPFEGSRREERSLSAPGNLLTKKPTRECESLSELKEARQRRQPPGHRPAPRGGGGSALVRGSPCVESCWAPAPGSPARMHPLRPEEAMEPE

Calls of active or inactive are those of the source. Unless noted, the calls are words filed in the database; no cut-off is given here.

Sequence of Mitogen-activated protein kinase kinase kinase kinase 5 (Q9Y4K4 whole entry): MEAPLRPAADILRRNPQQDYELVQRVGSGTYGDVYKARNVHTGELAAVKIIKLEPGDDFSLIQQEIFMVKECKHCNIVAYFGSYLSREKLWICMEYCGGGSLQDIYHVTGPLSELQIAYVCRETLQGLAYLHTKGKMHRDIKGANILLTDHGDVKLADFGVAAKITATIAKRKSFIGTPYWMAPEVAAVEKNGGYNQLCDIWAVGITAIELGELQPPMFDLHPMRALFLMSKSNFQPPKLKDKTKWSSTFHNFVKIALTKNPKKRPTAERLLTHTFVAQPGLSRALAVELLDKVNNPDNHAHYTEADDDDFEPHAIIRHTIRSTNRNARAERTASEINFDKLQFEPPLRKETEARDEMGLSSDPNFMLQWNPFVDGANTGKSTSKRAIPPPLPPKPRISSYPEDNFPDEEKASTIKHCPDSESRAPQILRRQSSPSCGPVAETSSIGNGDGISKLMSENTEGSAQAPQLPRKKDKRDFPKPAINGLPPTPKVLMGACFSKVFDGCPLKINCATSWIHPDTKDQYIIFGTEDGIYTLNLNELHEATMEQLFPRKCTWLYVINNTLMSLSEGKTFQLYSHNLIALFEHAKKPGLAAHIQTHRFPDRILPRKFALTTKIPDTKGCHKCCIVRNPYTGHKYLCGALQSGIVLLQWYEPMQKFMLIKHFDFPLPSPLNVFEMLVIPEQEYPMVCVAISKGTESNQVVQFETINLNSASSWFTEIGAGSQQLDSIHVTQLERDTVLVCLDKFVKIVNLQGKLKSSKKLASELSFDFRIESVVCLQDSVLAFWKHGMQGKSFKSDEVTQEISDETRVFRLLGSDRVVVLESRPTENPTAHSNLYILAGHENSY

In the case of `c1ccc2nc3cc4[nH]cnc4cc3nc2c1`, the concentration for a half-maximal effect (EC50) (commonly the concentration needed to bring the measured effect to its halfway point) is 29.6 µM (inconclusive) at Protein RecA and 15.5 µM (active) in experiment [1].

Regarding `CCCCC(=O)Nc1cc(-c2c[nH]c3ncccc23)cc(Cl)n1`, in experiment [2], the Ki (commonly a dissociation constant, usually derived from enzyme kinetics or from competition with a known ligand) is > 3.98 µM (inactive).

For the molecule `Oc1ccc(-c2nc(-c3ccncc3)c(-c3ccc(F)cc3)[nH]2)cc1` [SB-202190], the Ki was > 5.01 µM (inactive) in experiment [3] and > 2.51 µM (inactive) in experiment [4].

The values are drawn from ChEMBL document CHEMBL1201862, “PubChem BioAssay data set” (2004).
